# Results as given in paper PMC4627311, “Marine alkaloid Monanchocidin a overcomes drug resistance by induction of autophagy and lysosomal membrane permeabilization” (Oncotarget, 2015).
# Where two headings read alike, the source gives them in different places.
# Columns and labels:
# NCCIT-R cells [1] = test: Drug combination MTT assay, Chou-Talalay method (CI)
# Experimental: (§6) F, Effect of MonA in combination with cisplatin on NCCIT-R cells, examined by the MTT assay. Cells were co-treated with different concentrations of the single substances or their combination for 48 h at a constant molar ratio. The combinational index (CI) values were calculated with CompuSyn software. The ratio of the substances is C(MonA) : C(cisplatin) = 1.2 : 10.
# (§7) Co-treatment of MonA and the indicated inhibitors for 48 h was performed. The combinational index (CI) values were calculated with the CompuSyn software for the Fa (fraction affected) = 0.5.
# (§8) Determination of synergistic or antagonistic drug effects in combination assays was performed using the Chou-Talalay method [20]. Data were generated by MTT assay. The combinational index (CI) was calculated for the constant drugs ratio with the CompuSyn v.1.0. software (ComboSyn, Inc., Paramus, NJ, USA). Synergism is defined as a CI < 1, whereas antagonism is defined by a CI > 1. The MTT assay was used to examine the combination of MonA at the IC50 with defined inhibitors of autophagy or LMP, or with the IC50 of cisplatin. […] All experiments were performed in triplicates and were repeated at least three times.
# MonA : z-VAD-fmk 1.2 µM : 100 µM
# MonA : calpeptine 1.2 µM : 50 µM
# MonA : leupeptine 1.2 µM : 100 µM
# (§9) MonA : protease inhibitors cocktail 1.2 µM : 0.02 tablet/ml
# (cOmplete Mini EDTA-free)
# NCCIT = test: MTT cytotoxicity assay, NCCIT; assay type: cell-based, human; details: cisplatin-sensitive GCT, 72 h
# From the text: (§1) The human prostate cancer cell lines PC3 (docetaxel resistant, androgen-independent), DU145 (docetaxel sensitive, androgen-independent), LNCaP (docetaxel sensitive, androgen-dependent), human bladder cancer cell lines RT112, RT4, 486p, T24, human embryonic kidney cell line HEK 293T, human embilical vascular endothelium cell line HUVEC, as well as human fibroblast cell lines MRC-5 and MRC-9 were obtained from ATCC (Manassas, VA, USA). The human germ cell tumor cancer cell line NCCIT was obtained from DSMZ (Braunschweig, Germany). TCam-2 and 2102EP cells were kindly provided by Prof. L. Looijenga (Rotterdam, The Netherlands). The cisplatin-resistant sublines NCCIT-R and 2102EP-R have been generated as reported before. Cells were cultured according to the manufacturers instructions (culture conditions are described in the supplementary). Cells were continuously kept in culture for a maximum of 3 months, and were routinely inspected microscopically for stable phenotype and regularly checked for contamination with mycoplasma. Cell line authentication was performed by DSMZ (Braunschweig, Germany) using highly polymorphic short tandem repeat loci.
# (§2) The in vitro cytotoxicity of individual substances and drug combinations was evaluated using the MTT (3-(4,5-dimethylthiazol-2-yl)-2,5-diphenyltetrazolium bromide) assay, which was performed as previously described.
# 2102EP = test: MTT cytotoxicity assay, 2102EP; assay type: cell-based, human; details: cisplatin-sensitive GCT, 72 h
# From the text: as §1, §2
# TCam-2 = test: MTT cytotoxicity assay, TCam-2; assay type: cell-based, human; details: TCam-2, cisplatin-sensitive GCT, 72 h
# From the text: as §1, §2
# NCCIT-R = test: MTT cytotoxicity assay, NCCIT-R; assay type: cell-based, human
# From the text: as §1, §2
# 2102EP-R = test: MTT cytotoxicity assay, 2102EP-R; assay type: cell-based, human; details: cisplatin-resistant GCT, 72 h
# From the text: as §1, §2
# RT112 = test: MTT cytotoxicity assay, RT112; assay type: cell-based, human; details: 72 h
# From the text: as §1, §2
# RT4 = test: MTT cytotoxicity assay, RT4; assay type: cell-based, human; details: 72 h
# From the text: as §1, §2
# 486p = test: MTT cytotoxicity assay, 486p; assay type: cell-based, human; details: bladder cancer, 72 h
# From the text: as §1, §2
# T24 = test: MTT cytotoxicity assay, T24; assay type: cell-based, human; details: 72 h
# From the text: as §1, §2
# NCCIT-R cells [2] = test: Western blotting / PAGE of protein extracts; assay type: cell-based, human; details: for Expression of LC3B-II (marker of autophagy): MonA 0.25 – 2 μM long-term or 20 – 50 μM short-term, reference drugs 48 h
# Experimental: (§3) Figure 3 Effect of MonA on activation of MAPK and protein degradation A, NCCIT-R cells were analyzed after treatment with MonA for 1 h by Western blotting. Cells treated with 50 μM of anisomycin for 1 h (Aniso) were used as a positive control for MAPK activation. […] C, Analysis of NCCIT-R cells treated with 1 μM of MonA for 1 h. […] Two samples of the spot were randomly picked from the area between ~5 kDa and ~1 kDa, followed by trypsination and identification of peptides by tandem mass spectrometry. D, Analysis of NCCIT-R cells treated with 20 μM of MonA for 1-3 h. Cleavage of PARP and caspase-3 were investigated as hallmarks of apoptosis. Cells treated with 10 μM of cisplatin (CP) for 48 h were used for comparison of the effects of a classical cytotoxic agent. E, Analysis of non-malignant HEK 293T cells treated with 0.0625 – 1 μM of MonA for 48 h.
# Figure 5 Effect of cytotoxic compounds on NCCIT-R cells A, NCCIT-R cells were treated with docetaxel, anisomycin, or cisplatin for 48 h. The effect on markers of apoptosis (cleavage of PARP and caspase-3) and autophagy (LC3B-II) were analyzed using Western blotting. While all show induction of apoptosis, expression of LC3B-II is not increased after treatment with these substances. B, Microphotographs of NCCIT-R cells treated with cisplatin or MonA for 48 h show morphological changes induced by the substances. The pictures were made at x100 magnification. Each bar represents 50 μm.
# (§4) Preparation of protein extracts and Western blotting were performed as described previously with slight modifications. In brief, 1 × 10^6 cells/well were seeded in Petri dishes (ø 6 cm, 5 mL/dish). Cells were harvested, proteins were extracted, subjected to electrophoresis in 10-15% SDS-polyacrylamide gels at 120 V, and transferred from gel to a 0.2 μm pore PVDF membrane. The membrane was blocked and incubated with the primary antibody according to the manufacturer's protocol (for antibodies used, see the supplementary). After washing, the membranes were incubated with the corresponding secondary antibody for 1 h at RT. Signals were detected using the ECL chemiluminescence system (Thermo Scientific, Rockford, IL, USA) according to the manufacturer's protocol.
# SDS-polyacrylamide gels were prepared as described above. Dye-free loading buffer was used for the protein samples preparation. Gels were fixed and stained with colloidal Coomassie Blue overnight, destained, and digitalized as previously described.
# MRC-5 = test: MTT cytotoxicity assay, MRC-5; assay type: cell-based; details: Homo sapiens, MRC5, MRC-5, non-malignant, 72 h
# From the text: as §1, §2
# MRC-9 = test: MTT cytotoxicity assay, MRC-9; assay type: cell-based; details: Homo sapiens, MRC9, MRC-9, non-malignant, 72 h
# From the text: as §1, §2
# HEK 293T = test: MTT cytotoxicity assay, HEK 293T; assay type: cell-based; details: Homo sapiens, non-malignant, 72 h
# From the text: as §1, §2
# HUVEC = test: MTT cytotoxicity assay, HUVEC; assay type: cell-based; details: Homo sapiens, non-malignant, 72 h
# From the text: as §1, §2
# PC3 = test: MTT cytotoxicity assay, PC3; assay type: cell-based; details: Homo sapiens, PC-3, PC3, prostate cancer, 72 h
# From the text: as §1, §2
# DU145 = test: MTT cytotoxicity assay, DU145; assay type: cell-based; details: Homo sapiens, DU-145, DU145, prostate cancer, 72 h
# From the text: as §1, §2
# LNCaP = test: MTT cytotoxicity assay, LNCaP; assay type: cell-based; details: Homo sapiens, prostate cancer, 72 h
# From the text: as §1, §2
# HEK 293T cells = test: Western blotting / PAGE, protein degradation in non-malignant cells; assay type: cell-based, human; details: non-malignant HEK 293T, 0.0625 – 1 μM, 48 h
# Experimental: as §3
# Preparation of protein extracts and Western blotting were performed as described previously with slight modifications. In brief, 1 × 10^6 cells/well were seeded in Petri dishes (ø 6 cm, 5 mL/dish). Cells were harvested, proteins were extracted, subjected to electrophoresis in 10-15% SDS-polyacrylamide gels at 120 V, and transferred from gel to a 0.2 μm pore PVDF membrane. […] Signals were detected using the ECL chemiluminescence system (Thermo Scientific, Rockford, IL, USA) according to the manufacturer's protocol. […]
# prostate cancer cells = test: Western blotting of LC3B-II in prostate cancer cells; assay type: cell-based, human; details: 48 h
# Experimental: as §4
# NCCIT-R cells [3] = test: Acridine orange staining of lysosomes (LMP); assay type: cell-based, human
# Experimental: (§5) Intact lysosomes were observed as organelles emitting red fluorescence (indicated by arrows). Red fluorescence was quantified using Image J software and is graphically depicted by column bars. B, Cells were treated with MonA for 48 h, and immobilized on glass plates. Samples were permeabilized, blocked, labeled with a primary anti-cathepsin B antibody, followed by a secondary Alexa Fluor 488-conjugated antibody labeling, and analyzed using fluorescent microscopy. […] The microphotographs (A, B) were made at x400 and x100 magnifications. Each bar represents 50 μm.
# NCCIT-R cells were pre-incubated overnight in 8-chamber glass slides (5 × 10^4 cells/chamber). The medium was changed with medium containing different concentrations of the substances examined, and cells were treated for 60 min. Then cells were washed twice with PBS solution, stained with 0.5 μg/mL of acridine orange/PBS for 15 min at 37°C, covered with DAPI-based ProLong® Gold reagent (Life Technologies, Eugene, OR, USA), and immediately analyzed with AxioScope.A1 (Carl Zeiss) microscope and with the AxioVision40 V4.8 software (Carl Zeiss Imaging Solutions, Göttingen, Germany). Red fluorescence measurements and quantification were performed with Image J software (NIH, Bethesda, USA).
# NCCIT-R cells [4] = test: Detection of cathepsin B release; assay type: cell-based, human; details: 48 h
# Experimental: as §5
# To assess release of cathepsin B into the extracellular space, NCCIT-R cells were pre-incubated overnight in 6-well plates (2 × 10^5 cells/well), and were then treated with MonA for 48 h. After trypsination, cells were immobilized on glass slides using the cytospin method and dried overnight. Cells were fixed with 2% (w/v) PFA/PBS, washed with PBS and permeabilized with 0.1% (v/v) Triton X-100 solution in 2% (v/v) normal goat serum/PBS for 30 min. […] Then, samples were washed with PBS, covered with DAPI-based ProLong® Gold reagent (Life Technologies) and directly analyzed with AxioScope.A1 (Carl Zeiss) microscope and with the AxioVision40 V4.8 software (Carl Zeiss Imaging Solutions).
# THP-1 = tested on: THP-1; parameters: method as in PMID 20804151; details: cited from earlier work
# HL-60 = tested on: HL-60; parameters: method as in PMID 20804151; details: cited from earlier work
# HeLa = tested on: HeLa; parameters: method as in PMID 20804151; details: cited from earlier work
# NCCIT-R cells [5] = tested on: NCCIT-R cells
# Experimental: as §6, §7, §8
# MonA : z-VAD-fmk 1.2 µM : 100 µM
# MonA : calpeptine 1.2 µM : 50 µM
# MonA : leupeptine 1.2 µM : 100 µM
# as §9
# (cOmplete Mini EDTA-free)
compound,measurement,setting,value
"Cn1cnc(N)c2ncnc1-2 [3-MA, 3-methyladenine, reference compound]",Effect of inhibitor on cytotoxicity of MonA (combinational index),"NCCIT-R cells [1]; 48 h, MTT, CI at Fa = 0.5, ratios in Table S3",most pronounced antagonistic effect
"N.N.[Cl][Pt][Cl] [Cisplatin, cis-diamminedichloroplatinum (II), reference compound]",IC50,NCCIT,1.56 µM
same,IC50,2102EP,0.644 µM
same,IC50,TCam-2,2.48 µM
same,IC50,"NCCIT-R; cisplatin-resistant GCT, 72 h, MTT",8.93 µM
same,IC50,2102EP-R,4.93 µM
same,IC50,"RT112; RT112, bladder cancer",8.99 µM
same,IC50,"RT4; RT4, bladder cancer",11.9 µM
same,IC50,486p,20.8 µM
same,IC50,"T24; T24, bladder cancer",9.07 µM
same,Markers of apoptosis (cleavage of PARP and caspase-3),NCCIT-R cells [2]; Western blotting,increase of markers of apoptosis
same,Expression of LC3B-II (marker of autophagy),NCCIT-R cells [2]; Western blotting,None of the drugs revealed an up-regulation of LC3B-II
"CC/C=C/[C@@H]1CC[C@]2(C[C@H]3CC[C@H]4[C@@H](C(=O)OC(CC)CCCCCCCCCCCCC[C@@H]5O[C@](O)(CCN)[C@H](O)N(CCCN)C5=O)[C@@]5(CCC[C@H](C)O5)NC(=[N+]34)N2)O1 (stereo partly drawn) [MonA, Monanchocidin A]",IC50,MRC-5,0.756 µM
same,IC50,MRC-9,0.708 µM
same,IC50,HEK 293T,0.67 µM
same,IC50,HUVEC,0.838 µM
same,IC50,NCCIT; Homo sapiens,0.21 µM
same,IC50,2102EP; Homo sapiens,0.341 µM
same,IC50,TCam-2; Homo sapiens,0.44 µM
same,IC50,"NCCIT-R; Homo sapiens, 48 h of treatment",0.5 to 1 µM
same,IC50,"NCCIT-R; Homo sapiens, cisplatin-resistant GCT, 72 h, MTT",0.253 µM
same,IC50,2102EP-R; Homo sapiens,0.306 µM
same,IC50,PC3,0.42 µM
same,IC50,DU145,0.482 µM
same,IC50,LNCaP,0.265 µM
same,IC50,"RT112; Homo sapiens, RT-112, RT112, bladder cancer",0.263 µM
same,IC50,"RT4; Homo sapiens, RT-4, RT4, bladder cancer",0.58 µM
same,IC50,486p; Homo sapiens,0.273 µM
same,IC50,"T24; Homo sapiens, T-24, T24, bladder cancer",0.413 µM
same,"Activation of MAPK (p38, ERK, JNK)","NCCIT-R cells [2]; 50 μM, 1 h, Western blotting","Activation of p38 and ERK, but not JNK"
same,Expression of LC3B-II (marker of autophagy),NCCIT-R cells [2]; Western blotting,up-regulation of LC3B-II
same,Protein degradation,NCCIT-R cells [2]; short term 30 μM - 50 μM or long-term 0.5 μM - 2 μM,Degradation of different proteins was observed
same,Protein degradation,HEK 293T cells,did not reveal any signs of protein degradation
same,Expression of LC3B-II (marker of autophagy),prostate cancer cells,up-regulation of LC3B-II
same,Lysosomal membrane permeabilization (acridine orange fluorescence),NCCIT-R cells [3],disappearance of red fluorescence coupled with increased green fluorescence
same,Concentration at which release of cathepsin B into the extracellular space occurred,NCCIT-R cells [4],≥ 2 µM
same,Cytotoxic activity,THP-1,micro- and nanomolar concentrations
same,Cytotoxic activity,HL-60,micro- and nanomolar concentrations
same,Cytotoxic activity,HeLa,micro- and nanomolar concentrations
same,Effect of MonA in combination with cisplatin (combinational index),"NCCIT-R cells [1]; 48 h co-treatment, C(MonA) : C(cisplatin) = 1.2 : 10",strong synergistic effects
"COc1ccc(C[C@H]2NC[C@H](O)[C@H]2OC(C)=O)cc1 [anisomycin, Anisomycin]",Markers of apoptosis (cleavage of PARP and caspase-3),NCCIT-R cells [2]; Western blotting,increase of markers of apoptosis
same,Expression of LC3B-II (marker of autophagy),NCCIT-R cells [2]; Western blotting,None of the drugs revealed an up-regulation of LC3B-II
CC(=O)O[C@@]12CO[C@@H]1C[C@H](O)[C@@]1(C)C(=O)[C@H](O)C3=C(C)[C@@H](OC(=O)[C@H](O)[C@@H](NC(=O)OC(C)(C)C)c4ccccc4)C[C@@](O)([C@@H](OC(=O)c4ccccc4)[C@H]21)C3(C)C [docetaxel],Markers of apoptosis (cleavage of PARP and caspase-3),NCCIT-R cells [2]; Western blotting,increase of markers of apoptosis
same,Expression of LC3B-II (marker of autophagy),NCCIT-R cells [2]; Western blotting,None of the drugs revealed an up-regulation of LC3B-II
z-VAD(OMe)-fmk [z-VAD-fmk],Effect of inhibitor on cytotoxicity of MonA (combinational index),NCCIT-R cells [5],moderate antagonistic effect
